Earlier results as cited in patent publication US6703346B2, “Herbicide compositions comprising imidazolinone acid, methods of preparation, and methods of use” (Platte Chemical Co., priority 2001, dated 2004).

Details: general statement, no measurement described

Compound | pKa
CC(C)C1(C)N=C(c2nc3ccccc3cc2C(=O)O)NC1=O (stereo not drawn) [imazaquin] | approximately 3.8
CCc1cnc(C2=NC(C)(C(C)C)C(=O)N2)c(C(=O)O)c1 (stereo not drawn) [imazethapyr] | approximately 3.9
imazamethbenz | approximately 2.9
